Our source for the IC50 values is patent US8759333B2, “Di-azetidinyl diamide as monoacylglycerol lipase inhibitors” (Janssen Pharmaceutica, NV, priority 2010, dated 2014).

In this test the target is T1, mutant MGL (mut-MGLL 11-313 L179S L186S) (Homo sapiens, UniProt Q99685, L169S/L176S).
T1 construct: purified mutant MGL (mut-MGLL 11-313 L179S L186S)
T1 sequence (Q99685 1-303 L169S/L176S): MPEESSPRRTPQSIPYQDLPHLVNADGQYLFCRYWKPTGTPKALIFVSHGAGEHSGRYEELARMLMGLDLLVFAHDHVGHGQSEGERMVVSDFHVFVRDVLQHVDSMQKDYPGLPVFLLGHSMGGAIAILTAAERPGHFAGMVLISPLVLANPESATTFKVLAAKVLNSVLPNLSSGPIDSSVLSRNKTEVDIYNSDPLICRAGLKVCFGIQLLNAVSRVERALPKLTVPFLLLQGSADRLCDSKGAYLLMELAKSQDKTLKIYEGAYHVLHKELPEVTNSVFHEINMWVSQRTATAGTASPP
Briefly: MGL Enzyme Activity Assay, purified mutant MGL, 4MU-B substrate. Type of test: biochemical. As to conditions: mutant MGL 5 nM, 4MU-B 10 μM, 37° C.; read-out: MGL mutant inh IC50. On the procedure: All rate-based assays were performed in black 384-well polypropylene PCR microplates (Abgene) in a total volume of 30 μL. Substrate 4-methylumbelliferyl butyrate (4MU-B; Sigma) and either purified mutant MGL (mut-MGLL 11-313 L179S L186S) or purified wild type MGL (wt-MGLL 6H-11-313) were diluted separately into 20 mM PIPES buffer (pH=7.0), containing 150 mM NaCl and 0.001% Tween 20. Compounds of Formula (I), including Formulas I(a), I(b), and I(c), were pre-dispensed (50 nL) into the assay plate using a Cartesian Hummingbird prior to adding 4MU-B (25 μL of 1.2× solution to a final concentration of 10 μM) followed by enzyme (5 μL of a 6× solution to a final concentration of 5 nM) to initiate the reaction. Final compound concentrations ranged from 17 to 0.0003 μM. The fluorescence change due to 4MU-B cleavage was monitored with excitation and emission wavelengths of 335 and 440 nm, respectively, and a bandwidth of 10 nm (Safire^2, Tecan) at 37° C. for 5 min.
The IC50 values for the following compounds were determined using Microsoft Office Excel from a fit of the equation to the concentration-response plot of the fractional activity as a function of inhibitor concentration.

A word on the IC50: it is the point on the concentration scale where inhibition reaches its midpoint. As for `O=C(c1ccc(N2CCCCC2)cc1)N1CC(N2CC(N3Cc4ccccc4C3=O)C2)C1` [Cpd 91, 2-{1′-[(4-Piperidin-1-ylphenyl)carbonyl]-1,3′-biazetidin-3-yl}-2,3-dihydro-1H-isoindol-1-one], the IC50 turned out to be 236 nM. Then `Cc1c(C(=O)N2CC(N3CC(NC(=O)c4ccccc4)C3)C2)sc2ccc(Cl)cc12` [Cpd 36, N-{1′-[(5-Chloro-3-methyl-1-benzothiophen-2-yl)carbonyl]-1,3′-biazetidin-3-yl}benzamide], with 458 nM. Then `O=C(NC1CN(C2CN(C(=O)c3ccc4cc(Br)ccc4c3)C2)C1)c1nccs1` [Cpd 40, N-{1′-[(6-Bromonaphthalen-2-yl)carbonyl]-1,3′-biazetidin-3-yl}-1,3-thiazole-2-carboxamide], with 882 nM; and `O=C(NC1CN(C2CN(C(=O)c3ccc4cc(-c5ccccc5)ccc4c3)C2)C1)c1ccccc1` [Cpd 34, N-{1′-[(6-Phenylnaphthalen-2-yl)carbonyl]-1,3′-biazetidin-3-yl}benzamide], with 332 nM; and `O=C(NC1CN(C2CN(C(=O)c3ccc(Cc4ccc(C(F)(F)F)cc4)cc3)C2)C1)c1ccccc1` [Cpd 26, N-[1′-({4-[4-(Trifluoromethyl)benzyl]phenyl}carbonyl)-1,3′-biazetidin-3-yl]benzamide], with 157 nM. Then `O=C(c1ccc(Br)cc1)N1CC(N2CC(N3Cc4ccccc4C3=O)C2)C1` [Cpd 96, 2-{1′-[(4-Bromophenyl)carbonyl]-1,3′-biazetidin-3-yl}-2,3-dihydro-1H-isoindol-1-one], with 4670 nM; and `O=C(NC1CN(C2CN(C(=O)c3cc4ccc(-c5ccccc5)cc4s3)C2)C1)c1nccs1` [Cpd 6, N-{1′-[(6-Phenyl-1-benzothiophen-2-yl)carbonyl]-1,3′-biazetidin-3-yl}-1,3-thiazole-2-carboxamide], with 8 nM; and `O=C(c1ccc2cc(Br)ccc2c1)N1CC(N2CC(N3Cc4ccccc4C3=O)C2)C1` [Cpd 90, 2-{1′-[(6-Bromonaphthalen-2-yl)carbonyl]-1,3′-biazetidin-3-yl}-2,3-dihydro-1H-isoindol-1-one], with 154 nM.

Take `O=C(NC1CN(C2CN(C(=O)c3ccc4nc(-c5cccc(C(F)(F)F)c5)oc4c3)C2)C1)c1nccs1` [Cpd 28, N-[1′-({2-[3-(Trifluoromethyl)phenyl]-1,3-benzoxazol-6-yl}carbonyl)-1,3′-biazetidin-3-yl]-1,3-thiazole-2-carboxamide]: the IC50 amounted to 180 nM. For `O=C(NC1CN(C2CN(C(=O)c3ccc4c(-c5ccccc5)cccc4c3)C2)C1)c1ccccc1` [Cpd 25, N-{1′-[(5-Phenylnaphthalen-2-yl)carbonyl]-1,3′-biazetidin-3-yl}benzamide], the IC50 is 154 nM. Then `O=C(NC1CN(C2CN(C(=O)c3ccc4nc(-c5ccc(Cl)cc5)oc4c3)C2)C1)c1nccs1` [Cpd 33, N-(1′-{[2-(4-Chlorophenyl)-1,3-benzoxazol-6-yl]carbonyl}-1,3′-biazetidin-3-yl)-1,3-thiazole-2-carboxamide], with 303 nM.

Turning to `O=C(NC1CN(C2CN(C(=O)c3cc4cc(C(F)(F)F)ccc4s3)C2)C1)c1ccccc1` [Cpd 44, N-(1′-{[5-(Trifluoromethyl)-1-benzothiophen-2-yl]carbonyl}-1,3′-biazetidin-3-yl)benzamide], the IC50 was 1830 nM. With `O=C(c1ccc(-c2cc3ccccc3s2)cc1)N1CC(N2CC(N3Cc4ccccc4C3=O)C2)C1` [Cpd 95, 2-(1′-{[4-(1-Benzothiophen-2-yl)phenyl]carbonyl}-1,3′-biazetidin-3-yl)-2,3-dihydro-1H-isoindol-1-one] the figure was 750 nM; with `O=C(NC1CN(C2CN(C(=O)c3ccc(Oc4ccccc4)cc3)C2)C1)c1nccs1` [Cpd 32, N-{1′-[(4-Phenoxyphenyl)carbonyl]-1,3′-biazetidin-3-yl}-1,3-thiazole-2-carboxamide], 287 nM.

With `O=C(NC1CN(C2CN(C(=O)c3ccc4cc(Br)ccc4c3)C2)C1)c1ccccc1` [Cpd 42, N-{1′-[(6-Bromonaphthalen-2-yl)carbonyl]-1,3′-biazetidin-3-yl}benzamide], the IC50 worked out at 997 nM.
